These results are taken from PubChem BioAssay (NCI).

Common to all, as to assay: NCI tumour cell line growth inhibition, 48 h
Test [1] has as its system 786-0 renal.
The test system of test [2] is CAKI-1 renal.
Test [3] relates to MCF7 breast.
Test [4] deals with SF-539 CNS.
Test [5] has as its system SK-MEL-2 melanoma.
The test system of test [6] is SK-MEL-28 melanoma.
Test [7] deals with SK-OV-3 ovarian.
Test [8] deals with SR leukemia.
For test [9], the system named is SW-620 colon.
The test system of test [10] is UACC-62 melanoma.

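1) Cells in 96-well plates. 2) Compound, 48 h, 5 concentrations. 3) Linear interpolation between surrounding doses. 4) Unreached endpoint = highest concentration. TGI: concentration producing complete growth inhibition.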

`Clc1ccc(-c2nn3c(COc4ccc(OCc5nnc6sc(-c7ccc(Cl)cc7)nn56)c(Cl)c4)nnc3s2)cc1`: the TGI in test [1] was 26.6 µM; in test [2], 75.1 µM; in test [3], over 100 µM; in test [4] it was over 100 µM; in test [5], over 100 µM; in test [6], over 100 µM. For the same compound, the TGI is over 100 µM in test [7], 61.4 µM in test [8], 74.1 µM in [9] and over 100 µM in test [10].

Regarding `Cc1c(C)c2c(c(N)c1C#N)C(=O)N(NC(=S)Nc1ccccc1)C2=O`, the TGI in test [1] is over 100 µM; in test [2] it was 88.1 µM; in test [3], over 100 µM; in [4], over 100 µM; in test [5], over 100 µM; in test [6], over 100 µM. Further, the TGI in [7] was over 100 µM; in [8], 83.5 µM; in test [9], over 100 µM; in test [10], over 100 µM.

Consider `CC(C)(C)OC(=O)N1CCC2(CC1)C(=O)NCN2c1ccccc1`, for which the TGI in test [1], in test [2], in test [3], in test [4], in [5] and in test [6] was over 100 µM in each case. For the same compound, the TGI in test [7], in [8], in test [9] and in test [10] was over 100 µM in each case.

On to `O=[N+]([O-])C(/C=C(\Cl)[N+](=O)[O-])=C(Nc1ccccc1)Nc1ccccc1`, for which the TGI in [1] is 14.3 µM; in test [2], 26.8 µM; in test [3], 14.6 µM; in [4], 24 µM; in [5], 35.8 µM; in test [6], 24.6 µM. Moreover, the TGI in test [7] is 34.5 µM; in test [8], 6.02 µM; in test [9] it was 11 µM; in [10] it was 21.3 µM.

Take `CCOC(=O)C(NC(=O)c1ccccc1)(Nc1ccc(S(=O)(=O)Nc2cc(C)on2)cc1)C(F)(F)F` (stereo not given): the TGI in [1], in [2], in test [3], in test [4], in [5] and in test [6] was over 100 µM throughout. Further, the TGI in [7], in [8], in test [9] and in test [10] was over 100 µM in each case.

For the compound `C=C(C)C1CCC2(C)C1CCC1(C)C2CCC2C3(C)C4OC(OC4=O)C(C)(C)C3CCC21C` (stereo not given), the TGI in [1], in test [2], in test [3], in test [4], in test [5] and in test [6] was over 100 µM each time. The TGI in test [7], in test [8], in test [9] and in test [10] was over 100 µM each time.

On to `Fc1cccc(C2ON=C(c3ccccc3)N2C23CC4CC(CC(C4)C2)C3)c1` (stereo not given), for which the TGI in [1], in test [2], in test [3], in [4], in test [5] and in [6] was over 10 µM throughout. For the same compound, the TGI in test [7], in [8], in test [9] and in test [10] was over 10 µM each time.

As to `COc1cc2ccc(C(C)NCC#N)cc2cc1OC` (stereo not given), the TGI in [1], in [2], in test [3], in test [4], in [5] and in [6] was over 100 µM each time. The TGI in test [7], in test [8], in [9] and in test [10] was over 100 µM in each case.

For the compound `COC1CCC(OS(C)(=O)=O)C(C)O1` (stereo not given), the TGI in test [1], in test [2], in [3], in [4], in test [5] and in test [6] was over 10 µM in each case. Moreover, the TGI in [7], in [8], in [9] and in test [10] was over 10 µM in each case.

Take `C=C(CCC(=O)N(CCc1c[nH]c2ccccc12)C(=O)c1ccccc1CSCC)C(=O)OC`: the TGI in test [1], in test [2], in [3], in test [4], in [5] and in test [6] was over 100 µM throughout. The TGI in test [7], in [8], in test [9] and in [10] was over 100 µM throughout.

For the compound `c1csc(-c2cc(-c3ccsc3)cs2)c1`, the TGI in test [1], in test [2], in test [3], in [4], in test [5] and in [6] was over 100 µM in each case. Also, the TGI in test [7], in [8], in test [9] and in test [10] was over 100 µM throughout.

In the case of `CC(C)(C)C(=O)C(N)C(=O)C(C)(C)C`, the TGI in test [1], in [2], in test [3], in [4], in test [5] and in [6] was over 100 µM each time. Further, the TGI in [7], in test [8], in test [9] and in [10] was over 100 µM each time.

As for `CCOC(=O)NC(Nc1ccc(C(=O)O)cc1)(C(F)(F)F)C(F)(F)F`, the TGI in test [1], in test [2], in [3], in [4], in test [5] and in [6] was over 100 µM each time. In addition, the TGI in [7], in test [8], in test [9] and in [10] was over 100 µM in each case.
